Data: patent publication US20170086461A1, “SYNERGISTIC ANTIMICROBIAL COMPOSITION” (Dow Global Technologies LLC, priority 2015, published 2017)

System: Pseudomonas aeruginosa DSM # 939
Experiment: Minimum Inhibitory Concentration (MIC) test with synergy index (Kull method)
Format: cell-based
Conditions: single biocide acting alone; TSB broth, 30° C., 48 hours, ~1×10^6 CFU/ml
Experimental: The synergism of the biocides combination of the present invention was determined using the method described by Kull, F.C., et. al in Applied Microbiology 9:538-541 (1961).
The formula to calculate the synergy index (SI) is
• QA=concentration of compound A in ppm, acting alone produced an end point (growth/no growth) • Qa=concentration of compound A in ppm, in the mixture, which produced an end point (growth/no growth) • QB=concentration of compound B in ppm, acting alone produced an end point (growth/no growth) • Qb=concentration of compound B in ppm, in the mixture, which produced an end point (growth/no growth)
The Minimum Inhibitory Test (MIC) is designed to evaluate the lowest concentration of a biocide, biocide blend or biocide combination to prevent bacteria growing in a defined broth.
Minimum Inhibitory Concentration (MIC) Testing Protocol • 1. […]
The culture was maintained as a glycerol stock at −80° C. in cryovials. […] Reading of the results was carried out by measuring absorbance at 600 nm for each sample at the beginning of the test (tzero) and after incubation (tendpoint). tendpoint was chosen at 48 hours for bacteria. The difference in absorbance between tendpoint and tzero was used to assign a score (Δ>0.2 confirms growth while Δ≦0.2 confirms no growth) from which the MIC values were calculated.

Row | Compound | Minimum Concentration (active ppm) to Inhibit Growth, active alone [ppm]
1 | Cc1cc(O)ccc1Cl [Chlorocresol, 4-chloro-3-methylphenol] | 1539
2 | Cn1sc2ccccc2c1=O [MBIT, 2-methyl-1,2-benzothiazol-3(2H)-one] | 62
